Experiments:
[1] = test system: hippocampal cytokine and neurotropic factor mRNA; experiment: Brain parenchyma / hippocampus mRNA expression by RT-qPCR; assay type: in vivo, mouse
Description: Total RNA of the hippocampal dentate gyrus (DG) was extracted with TRI Reagent (Molecular Research Center) and purified from the lysates using an RNeasy Kit (Qiagen). Total RNA of the choroid plexus was extracted using an RNA MicroPrep Kit (Zymo Research). mRNA (1 μg) was converted into cDNA using a High Capacity cDNA Reverse Transcription Kit (Applied Biosystems). The expression of specific mRNAs was assayed using fluorescence-based quantitative real-time PCR (RT-qPCR). RT-qPCR reactions were performed using Fast-SYBR PCR Master Mix (Applied Biosystems). Quantification reactions were performed in triplicate for each sample using the standard curve method. Peptidylprolyl isomerase A (ppia) was chosen as a reference (housekeeping) gene. The amplification cycles were 95° C. for 5 s, 60° C. for 20 s, and 72° C. for 15 s. At the end of the assay, a melting curve was constructed to evaluate the specificity of the reaction. For ifn-γ and ppia gene analysis, the cDNA was pre-amplified in 14 PCR cycles with non-random PCR primers, thereby increasing the sensitivity of the subsequent real-time PCR analysis, according to the manufacturer's protocol (PreAmp Master Mix Kit; Applied Biosystems). mRNA expression was determined using TaqMan RT-qPCR, according to the manufacturer's instructions (Applied Biosystems). All RT-qPCR reactions were performed and analyzed using StepOne software V2.2.2 (Applied Biosystems). The following TaqMan Assays-on-Demand™ probes were used: Mm02342430_g1 (ppia) and Mm01168134_m1 (ifn-γ).
For all other genes examined, the following primers were used: […]

[2] = test system: GFP+ mo-MΦ; experiment: Homing of GFP+ mo-MΦ in AD-Tg/CX3CR1GFP/+ BM chimeras; assay type: in vivo, mouse
Description: Tissue processing and immunohistochemistry were performed on paraffin embedded sectioned mouse (6 μm thick) and human (10 μm thick) brains. For human ICAM-1 staining, primary mouse anti-ICAM (1:20 Abcam; ab2213) antibody was used. Slides were incubated for 10 min with 3% H2O2, and a secondary biotin-conjugated anti-mouse antibody was used, followed by biotin/avidin amplification with Vectastain ABC kit (Vector Laboratories). Subsequently, 3,3′-diaminobenzidine (DAB substrate) (Zytomed kit) was applied; slides were dehydrated and mounted with xylene-based mounting solution. For tissue stainings, mice were transcardially perfused with PBS prior to tissue excision and fixation. CP tissues were isolated under a dissecting microscope (Stemi DV4; Zeiss) from the lateral, third, and fourth ventricles of the brain. […] Microscopic analysis, was performed using a fluorescence microscope (E800; Nikon) or laser-scanning confocal microscope (Carl Zeiss, Inc.). The fluorescence microscope was equipped with a digital camera (DXM 1200F; Nikon), and with either a 20× NA 0.50 or 40× NA 0.75 objective lens (Plan Fluor; Nikon). […] For quantification of staining intensity, total cell and background staining was measured using ImageJ software (NIH), and intensity of specific staining was calculated, as previously described (Burgess et al, 2010). […]

[3] = test system: APP/PS1 mouse model of AD; conditions: weekly administration regimen (Butovsky et al, 2006); cited from earlier work
[4] = weekly-GA vs untreated AD-Tg mice, age 6 m

| Substance | mRNA expression levels of pro-inflammatory cytokines (il-12p40, tnf-α) ([1]; AD-Tg/DTR+ mice, brain parenchyma, 3 weeks after last DTx injection) | foxp3 and il10 mRNA expression ([1]; AD-Tg/DTR+ mice, hippocampus, 3 weeks after last DTx injection) | neuroinflammation ([1]; weekly-GA 100 μg s.c. over 4 weeks, 5XFAD AD-Tg mice, hippocampus) | hippocampal mRNA of anti-inflammatory cytokines IL-10 and TGF-β [1, 4] | hippocampal mRNA of neurotropic factors IGF-1 and BDNF [1, 4] | hippocampal mRNA of pro-inflammatory cytokines TNF-α, IL-1β and IL-12p40 [1, 4] | homing of GFP+ mo-MΦ to the CP and adjacent ventricular spaces ([2]; weekly-GA vs vehicle-treated AD-Tg/CX3CR1GFP/+ controls) | GFP+ mo-MΦ in the brain parenchyma (immunohistochemistry) ([2]; weekly-GA, AD-Tg/CX3CR1GFP/+ chimeras) | effect in the APP/PS1 mouse model of AD [3] |
| --- | --- | --- | --- | --- | --- | --- | --- | --- | --- |
| Diphtheria toxin [DTx] | reduced mRNA expression levels | increased expression | – | – | – | – | – | – | – |
| Glatiramer acetate [GA] | – | – | reduced neuroinflammation | elevation | elevation | reduced expression | increased homing | accumulation at sites of cerebral plaque formation | therapeutic effect |

From patent US10961309B2, “Reducing systemic regulatory T cell levels or activity for treatment of disease and injury of the CNS” (Yeda Research and Development Co. Ltd, priority 2014, dated 2021)
